# Measured values published in patent publication US20130005728A1, “SUBSTITUTED PYRIMIDINES AS PROSTAGLANDIN D2 RECEPTOR ANTAGONISTS” (AVENTIS PHARMACEUTICALS INC., priority 2010, published 2013).
# pIC50: −log10 of the molar value. Structures can show the parent of a compound that is named as a salt.
# Target: T1, human prostaglandin D2 receptor (DP) (DP1) (Homo sapiens, UniProt Q13258)
# T1 construct: endogenous in cells; host or cells: human platelets in platelet-rich plasma from donor blood
# T1 sequence (Q13258 1-359): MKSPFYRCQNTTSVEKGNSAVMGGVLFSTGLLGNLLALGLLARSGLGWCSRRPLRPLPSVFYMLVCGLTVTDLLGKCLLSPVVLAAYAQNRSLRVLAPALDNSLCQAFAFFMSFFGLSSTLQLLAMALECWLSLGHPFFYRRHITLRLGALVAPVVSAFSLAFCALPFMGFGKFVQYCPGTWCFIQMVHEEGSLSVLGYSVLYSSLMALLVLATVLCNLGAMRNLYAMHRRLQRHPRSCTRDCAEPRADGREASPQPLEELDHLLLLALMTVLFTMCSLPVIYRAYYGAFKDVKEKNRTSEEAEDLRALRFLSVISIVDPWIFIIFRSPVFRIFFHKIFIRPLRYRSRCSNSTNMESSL
# Assay: Antagonist activity on BW245C-induced cAMP accumulation in human platelet rich plasma (hPRP) by HTRF cAMP assay
# Format: cell-based
# Settings: inhibition of BW245C (25 nM)-induced cAMP accumulation in human platelet rich plasma; compound tested as HCl salt; read-out: hPRP IC50 (as HCl salt)
# Description: Assessment of Antagonist Activities of Compounds on BW245C-induced cAMP Accumulation in Human Platelet Rich Plasma (hPRP) by HTRF cAMP Assay
# The purpose of the assay is to assess compound antagonist activity at the human prostaglandin D2 receptor (DP) (DP1) in the presence of plasma proteins. DP is a Gs-protein coupled receptor, the activation of which induces cAMP accumulation. BW245C is a DP selective agonist. Therefore, by measuring inhibition of BW245C-induced 3′-5′-cyclic adenosine monophosphate (cAMP) accumulation in human platelet-rich plasma (PRP), the assay enables us to identify or confirm antagonist compounds at the human DP and/or IP receptors.
# The principle of the assay is based on HTRF technology (Homogeneous Time-Resolved Fluorescence). The method is a competitive immunoassay between native cAMP produced by cells and the tracer cAMP labeled with the dye d2. The tracer is visualized by a monoclonal antibody anti-cAMP labeled with cryptate. The specific signal (i.e. energy transfer) is inversely related to the concentration of cAMP in the standards or samples. The assay was carried out using the cAMP HiRange HTRF kit from Cisbio (catalog number 62AM6PEB, 888-963-4567).
# Preparation of Human Platelet Rich Plasma (hPRP): Human blood was obtained from sanofi-aventis on-site blood donor panel. The blood was gently transferred from the blood bag into a 50 ml centrifuge tube and centrifuged at 223×g (1000 rpm) for 15 minutes without break. The top layer (PRP) was aspirated slowly and transferred to a 250 ml centrifuge tube. The PRP was placed in the cell culture hood for approximately 30 minutes before use.
# Preparation of IBMX: IBMX is a phosphodiesterase (PDE) inhibitor and is included in the assay to prevent breakdown of cAMP. 1M IBMX stock was prepared in DMSO. 20 μL of 1M IBMX stock was then added into 30 μL of DMSO to obtain a 400 mM IBMX DMSO solution. This was further diluted 1:50 in 0.9% sodium chloride to obtain an 8 mM IBMX working solution. The solution was sonicated for 60 minutes before use.
# Preparation of BW245C: 10 mM BW245C stock was prepared in DMSO and aliquots were stored at −80° C. On the day of the assay, 10 mM BW245C stock was diluted 1 to 400 in DMSO to make a 25 μM solution. 100 μL of the 25 μM BW245C solution was added to 4900 μL of 0.9% sodium chloride to make a 500 nM working solution.
# Dilution of compounds: 10 mM compound DMSO stock solutions were serially diluted 1:3 in DMSO in a 96-well plate to achieve 11 different concentrations ranging from 10 mM to 0.00017 mM. A further 1:20 dilution in 0.9% sodium chloride solution was carried out for each concentration to obtain working concentrations ranging from 500 μM to 0.0085 μM (11 points) for each compound. For positive and negative controls, DMSO (without compound) was diluted 1:20 in 0.9% sodium chloride solution.
# Preparation of cAMP standards, cAMP-d2 and anti-cAMP cryptate (all in the assay kit): cAMP standard was reconstituted by adding distilled water according to the manufacturer's instruction (456 μL of water usually). The reconstituted cAMP standard was serially diluted 1:4 in 0.9% sodium chloride solution to achieve 11 different concentrations. cAMP-d2 was reconstituted by adding 2 mL of distilled water and then further diluting it in 8 mL of lysis buffer (in the kit). Anti-cAMP cryptate was reconstituted by adding 1.1 mL of distilled water and then further diluting it in 4.4 mL of lysis buffer.
# Assay Procedure: In the assay, each compound was run in duplicate. The final assay volume was 50 μl in each well.
# In the assay plate, 42 μL of platelet rich plasma (PRP) was added in each well. This was followed by the addition in each well of 2.5 μL of 8 mM IBMX (final concentration 400 μM) and 3 μL of diluted compound at varying concentrations (final concentrations ranging from 30,000 nM to 0.51 nM, 11 points for each compound). In the positive and negative control wells, 3 μL of diluted DMSO solution was added instead of compound. […]
row,SMILES,pIC50
1,"COc1nc(NCCc2ccc(OC(F)(F)F)cc2)cc(N2CCOCC2)n1 [Example 5, (2-Methoxy-6-morpholin-4-yl-pyrimidin-4-yl)-[2-(4-trifluoromethoxy-phenyl)-ethyl]-amine]",5.93
2,"COc1nc(NCCc2ccc(OC(F)(F)F)cc2)cc(N2CCCCC2C(=O)O)n1 (stereo not drawn) [Example 3, 1-{2-Methoxy-6-[2-(4-trifluoromethoxy-phenyl)-ethylamino]-pyrimidin-4-yl}-piperidine-2-carboxylic acid trifluoroacetate]",6.05

# Same assay, conditions: inhibition of BW245C (25 nM)-induced cAMP accumulation in human platelet rich plasma; read-out: hPRP IC50
row,SMILES,pIC50
1,"COc1nc(NCCc2ccc(OC(F)(F)F)cc2)cc(N2CCc3ccccc3C2)n1 [Example 12, [6-(3,4-Dihydro-1H-isoquinolin-2-yl)-2-methoxy-pyrimidin-4-yl]-[2-(4-trifluoromethoxy-phenyl)-ethyl]-amine trifluoroacetic acid salt]",5.91
2,"COc1nc(NCCc2ccc(OC(F)(F)F)cc2)cc(N2CCN(c3ccccc3)CC2)n1 [Example 13, [2-Methoxy-6-(4-phenyl-piperazin-1-yl)-pyrimidin-4-yl]-[2-(4-trifluoromethoxy-phenyl)-ethyl]-amine]",6.40
3,"COc1nc(NCCc2ccc(OC(F)(F)F)cc2)cc(N2C[C@@H](C(=O)O)[C@H](c3ccccc3OC)C2)n1 (racemic) [Example 15, (±)-trans-4-(2-Methoxy-phenyl)-1-{2-methoxy-6-[2-(4-trifluoromethoxy-phenyl)-ethylamino]-pyrimidin-4-yl}-pyrrolidine-3-carboxylic acid]",6.36
4,"COc1nc(NCCc2ccc(OC(F)(F)F)cc2)cc(N2CCC(C)(C(=O)O)C2)n1 (stereo not drawn) [Example 7, 1-{2-Methoxy-6-[2-(4-trifluoromethoxy-phenyl)-ethylamino]-pyrimidin-4-yl}-3-methyl-pyrrolidine-3-carboxylic acid]",6.50
5,"COc1ccc([C@H]2CN(c3cc(NCCc4ccc(OC(F)(F)F)cc4)nc(OC)n3)C[C@@H]2C(=O)O)cc1 [Example 11, (3R,4S)-4-(4-Methoxy-phenyl)-1-{2-methoxy-6-[2-(4-trifluoromethoxy-phenyl)-ethylamino]-pyrimidin-4-yl}-pyrrolidine-3-carboxylic acid]",6.39
6,CCOC(=O)N1CCN(c2cc(NCCc3ccc(OC(F)(F)F)cc3)nc(OC)n2)CC1 [Example 6],6.22
7,"COc1nc(NCCc2ccc(OC(F)(F)F)cc2)cc(N2CCCCC2CC(=O)O)n1 (stereo not drawn) [Example 4, (1-{2-Methoxy-6-[2-(4-trifluoromethoxy-phenyl)-ethylamino]-pyrimidin-4-yl}-piperidin-2-yl)-acetic acid trifluoroacetate]",7.49
8,"COc1nc(NCCc2ccc(OC(F)(F)F)cc2)cc(N2CCN(CC(=O)O)CC2)n1 [Example 2, (4-{2-Methoxy-6-[2-(4-trifluoromethoxy-phenyl)-ethylamino]-pyrimidin-4-yl}-piperazin-1-yl)-acetic acid tristrifluoroacetate]",6.43
9,"COc1nc(NCCc2ccc(OC(F)(F)F)cc2)cc(N2CCOC(C(=O)O)C2)n1 (stereo not drawn) [Example 1, 4-{2-Methoxy-6-[2-(4-trifluoromethoxy-phenyl)-ethylamino]-pyrimidin-4-yl}-morpholine-2-carboxylic acid trifluoroacetate]",8.00
10,"COc1nc(NCCc2ccc(OC(F)(F)F)cc2)cc(N2CCC(C(=O)O)C2)n1 (stereo not drawn) [Example 9, 1-{2-Methoxy-6-[2-(4-trifluoromethoxy-phenyl)-ethylamino]-pyrimidin-4-yl}-pyrrolidine-3-carboxylic acid]",6.24
11,"COc1nc(NCCc2ccc(OC(F)(F)F)cc2)cc(N2C[C@@H](C(=O)O)[C@H](C(C)C)C2)n1 [Example 8, (3S,4S)-4-Isopropyl-1-{2-methoxy-6-[2-(4-trifluoromethoxy-phenyl)-ethylamino]-pyrimidin-4-yl}-pyrrolidine-3-carboxylic acid]",6.42
12,"COc1nc(NCCc2ccc(OC(F)(F)F)cc2)cc(N2C[C@H](C(=O)O)[C@@H](c3ccccc3)C2)n1 [Example 10, (3R,4S)-1-{2-Methoxy-6-[2-(4-trifluoromethoxy-phenyl)-ethylamino]-pyrimidin-4-yl}-4-phenyl-pyrrolidine-3-carboxylic acid]",7.55
13,"COc1nc(NCCc2ccc(OC(F)(F)F)cc2)cc(N2CC[C@H](CC(=O)O)C2)n1 [Example 14, ((R)-1-{2-Methoxy-6-[2-(4-trifluoromethoxy-phenyl)-ethylamino]-pyrimidin-4-yl}-pyrrolidin-3-yl)-acetic acid]",6.15
